Experimental data reported in ChEMBL document CHEMBL5390253, “Discovery of Selective and Potent Macrocyclic CDK9 Inhibitors for the Treatment of Osimertinib-Resistant Non-Small-Cell Lung Cancer” (J Med Chem, 2023).
The source made the active and inactive calls. The calls are words filed in the database; no cut-off is given here.

Experiments:
[1] = Toxicity in ICR mouse assessed as abnormalities in spleen at 1000 mg/kg, po measured after 9 days by H and E staining based analysis; format: organism-based; settings: in vivo, 216 h, time 9 day
[2] = Induction of apoptosis in human Osimertinib-resistant NCI-H1975 cell assessed as late apoptotic cells at 125 nM measured after 16 hrs in presence of osimertinib by Annexin V-FITC and PI staining based analysis (Rvb =2.84%); format: functional
[3] = molecular target: Interleukin-1 receptor-associated kinase 1 (Homo sapiens) (UniProt P51617); experiment: Inhibition of IRAK1 (unknown origin) at 500 nM preincubated for 10 mins followed by substrate addition and measured after 60 mins in presence of ATP by ADP-Glo reagent based assay relative to control; settings: time 70.0 min
[4] = Toxicity in ICR mouse assessed as abnormalities in lung at 1000 mg/kg, po measured after 9 days by H and E staining based analysis; format: organism-based; settings: in vivo, 216 h, time 9 day
[5] = Downregulation of Mcl-1 level in human Osimertinib-resistant NCI-H1975 cell at 500 nM measured after 8 hrs by Western blotting analysis relative to control; format: functional
NCI-H1975 [6] = experiment: Downregulation of Mcl-1 level in human Osimertinib-resistant NCI-H1975 cell measured after 8 hrs by Western blotting analysis; format: functional, cell-based; settings: dose 0.05-2 µM
[7] = Toxicity in ICR mouse assessed as morphological changes in liver at 1000 mg/kg, po measured after 9 days by H and E staining based analysis; format: organism-based; settings: in vivo, 216 h, time 9 day
[8] = Antitumor activity against patient derived #2566 lung cancer organoid assessed as inhibition of growth measured after 4 days; format: functional, tissue-based; settings: Homo sapiens, 96 h
[9] = molecular target: Homeodomain-interacting protein kinase 1 (Homo sapiens) (UniProt Q86Z02); experiment: Inhibition of HIPK1 (unknown origin) at 500 nM preincubated for 10 mins followed by substrate addition and measured after 60 mins in presence of ATP by ADP-Glo reagent based assay relative to control; settings: time 70.0 min
NCI-H1975 [10] = experiment: Downregulation of cleaved caspase-3 level in human Osimertinib-resistant NCI-H1975 cell measured after 16 hrs by Western blot analysis; format: functional, cell-based; settings: dose 125-2000 nM
HCC827 = experiment: Antiproliferative activity against human HCC827 cells incubated for 72 hrs by MTT assay; format: functional, cell-based; settings: HCC827, 72 h
[11] = Antitumor activity against patient derived #2422 lung cancer organoid assessed as inhibition of growth measured after 4 days; format: functional, tissue-based; settings: Homo sapiens, 96 h
[12] = Toxicity in ICR mouse assessed as effect on body weight loss at 100 mg/kg, iv measured for 8 to 9 days; format: organism-based; settings: in vivo, time 8-9 day
[13] = molecular target: BDNF/NT-3 growth factors receptor (Homo sapiens) (UniProt Q16620); experiment: Inhibition of TRKB (unknown origin) at 500 nM preincubated for 10 mins followed by substrate addition and measured after 60 mins in presence of ATP by ADP-Glo reagent based assay relative to control; settings: time 70.0 min
[14] = molecular target: Dual specificity tyrosine-phosphorylation-regulated kinase 1A (Homo sapiens) (UniProt Q13627); experiment: Inhibition of DYRK1A (unknown origin) at 100 nM preincubated for 10 mins followed by substrate addition and measured after 60 mins in presence of ATP by ADP-Glo reagent based assay relative to control; settings: time 70.0 min
[15] = Antitumor activity against patient derived #0243 lung cancer organoid assessed as inhibition of growth measured after 4 days; format: functional, tissue-based; settings: Homo sapiens, 96 h
[16] = molecular target: Cyclin-Y/Cyclin-dependent kinase 16 (Homo sapiens) (UniProt Q00536+Q8ND76); experiment: Inhibition of CDK16/cyclin Y (unknown origin) at 200 nM preincubated for 10 mins followed by substrate addition and measured after 60 mins in presence of ATP by ADP-Glo reagent based assay relative to control; format: protein-complex assay; settings: time 70.0 min
PC-9 = experiment: Antiproliferative activity against human PC-9 cells incubated for 72 hrs by MTT assay; format: functional, cell-based; settings: PC-9, 72 h
[17] = molecular target: CDK6/cyclin D1 (Homo sapiens) (UniProt P24385+Q00534); experiment: Inhibition of CDK6/cyclin D1 (unknown origin) at 200 nM preincubated for 10 mins followed by substrate addition and measured after 60 mins in presence of ATP by ADP-Glo reagent based assay relative to control; format: protein-complex assay; settings: time 70.0 min
[18] = Antiproliferative activity against 3D-cultured human Osimertinib-resistant HCC827 cell incubated for 72 hrs by MTT assay; format: functional, cell-based; settings: Osimertinib-resistant HCC827AR cell
[19] = Metabolic stability in rat liver microsomes assessed as half life at 10 uM measured at 5 to 60 mins by LC-MS/MS analysis; format: ADME, Microsome; settings: time 5-60 min
[20] = molecular target: Cyclin-dependent kinase 5/CDK5 activator 1 (Homo sapiens) (UniProt Q00535+Q15078); experiment: Inhibition of CDK5/p35NCK (unknown origin) at 200 nM preincubated for 10 mins followed by substrate addition and measured after 60 mins in presence of ATP by ADP-Glo reagent based assay relative to control; format: protein-complex assay; settings: time 70.0 min
NCI-H1975 [21] = experiment: Downregulation of Mcl-1 level in human Osimertinib-resistant NCI-H1975 cell at 500 nM by Western blotting analysis; format: functional, cell-based; settings: time 2-12 hrs, TDE = time-dependent effect
NCI-H1975 [22] = experiment: Downregulation of cleaved caspase-3 level in human Osimertinib-resistant NCI-H1975 cell at 125 nM measured after 16 hrs in presence of osimertinib by Western blot analysis; format: functional, cell-based
[23] = molecular target: Dual specificity protein kinase CLK1 (Homo sapiens) (UniProt P49759); experiment: Inhibition of CLK1 (unknown origin) at 500 nM preincubated for 10 mins followed by substrate addition and measured after 60 mins in presence of ATP by ADP-Glo reagent based assay relative to control; settings: time 70.0 min
[24] = Induction of apoptosis in human Osimertinib-resistant NCI-H1975 cell assessed as viable cells at 500 nM measured after 16 hrs by Annexin V-FITC and PI staining based analysis (reference value: 94.9%); format: functional; settings: read-out: Activity
[25] = Induction of apoptosis in human Osimertinib-resistant NCI-H1975 cell assessed as viable cells at 125 nM measured after 16 hrs by Annexin V-FITC and PI staining based analysis (reference value: 94.9%); format: functional; settings: read-out: Activity
NCI-H1975 [26] = experiment: Downregulation of Bcl-2 level in human Osimertinib-resistant NCI-H1975 cell at 125 nM measured after 16 hrs in presence of osimertinib by Western blot analysis; format: functional, cell-based
[27] = Induction of apoptosis in human Osimertinib-resistant NCI-H1975 cell assessed as necrotic cells at 125 nM measured after 16 hrs in presence of osimertinib by Annexin V-FITC and PI staining based analysis (reference value: 0.50%); format: functional
[28] = Toxicity in ICR mouse assessed as abnormalities in liver at 1000 mg/kg, po measured after 9 days by H and E staining based analysis; format: organism-based; settings: in vivo, 216 h, time 9 day
[29] = Toxicity in ICR mouse assessed as effect on physical appearance at 1000 mg/kg, po measured for 8 to 9 days; format: organism-based; settings: in vivo, time 8-9 day
NCI-H1975 [30] = experiment: Antiproliferative activity against human NCI-H1975 cells incubated for 72 hrs by MTT assay; format: functional, cell-based; settings: NCI-H1975, 72 h
[31] = Antiproliferative activity against 3D-cultured human Osimertinib-resistant NCI-H1975 cell incubated for 72 hrs by MTT assay; format: functional, cell-based; settings: NCI-H1975, 72 h

BDNF/NT-3 growth factors receptor (Homo sapiens), sequence (Q16620 32-822 limits assumed): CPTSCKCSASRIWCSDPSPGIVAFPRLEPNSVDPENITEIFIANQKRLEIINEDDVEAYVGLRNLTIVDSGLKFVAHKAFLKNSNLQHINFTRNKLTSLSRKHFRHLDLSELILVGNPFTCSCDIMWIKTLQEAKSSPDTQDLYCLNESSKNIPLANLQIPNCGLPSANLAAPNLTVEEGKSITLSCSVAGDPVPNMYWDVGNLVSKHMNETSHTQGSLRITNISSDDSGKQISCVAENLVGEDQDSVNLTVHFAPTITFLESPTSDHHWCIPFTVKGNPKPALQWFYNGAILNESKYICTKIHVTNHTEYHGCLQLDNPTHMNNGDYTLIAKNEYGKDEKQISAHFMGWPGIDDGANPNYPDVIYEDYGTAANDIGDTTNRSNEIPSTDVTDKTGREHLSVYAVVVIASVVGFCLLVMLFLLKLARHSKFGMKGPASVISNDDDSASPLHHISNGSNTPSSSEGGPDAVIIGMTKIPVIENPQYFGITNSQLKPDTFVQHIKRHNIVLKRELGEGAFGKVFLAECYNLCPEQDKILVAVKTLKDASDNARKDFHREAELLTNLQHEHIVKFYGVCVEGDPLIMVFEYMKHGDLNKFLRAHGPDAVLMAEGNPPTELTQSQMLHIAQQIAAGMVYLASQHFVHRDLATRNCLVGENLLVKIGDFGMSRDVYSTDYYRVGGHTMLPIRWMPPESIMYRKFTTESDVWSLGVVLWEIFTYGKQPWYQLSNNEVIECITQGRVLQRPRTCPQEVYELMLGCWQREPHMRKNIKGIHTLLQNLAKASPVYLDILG
Cyclin-dependent kinase 5/CDK5 activator 1 (Homo sapiens), sequence (Q00535 whole entry): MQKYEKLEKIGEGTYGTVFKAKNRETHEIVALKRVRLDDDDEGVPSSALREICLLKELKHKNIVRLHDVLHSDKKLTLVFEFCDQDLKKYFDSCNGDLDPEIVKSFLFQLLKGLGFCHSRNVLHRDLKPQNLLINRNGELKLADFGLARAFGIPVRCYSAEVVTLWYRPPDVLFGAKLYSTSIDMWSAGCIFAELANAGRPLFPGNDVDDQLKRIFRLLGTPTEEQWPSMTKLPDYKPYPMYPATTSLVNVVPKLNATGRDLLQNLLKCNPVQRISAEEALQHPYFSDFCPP
Cyclin-dependent kinase 5/CDK5 activator 1 (Homo sapiens), sequence (Q15078 99-307 partner limits assumed): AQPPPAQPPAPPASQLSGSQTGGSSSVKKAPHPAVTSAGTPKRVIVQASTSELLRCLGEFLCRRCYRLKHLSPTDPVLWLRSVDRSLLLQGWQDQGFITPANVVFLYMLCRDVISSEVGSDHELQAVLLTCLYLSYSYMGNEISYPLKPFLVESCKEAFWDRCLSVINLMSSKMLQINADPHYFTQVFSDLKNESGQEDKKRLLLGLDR
Interleukin-1 receptor-associated kinase 1 (Homo sapiens), sequence (P51617 whole entry, looked up): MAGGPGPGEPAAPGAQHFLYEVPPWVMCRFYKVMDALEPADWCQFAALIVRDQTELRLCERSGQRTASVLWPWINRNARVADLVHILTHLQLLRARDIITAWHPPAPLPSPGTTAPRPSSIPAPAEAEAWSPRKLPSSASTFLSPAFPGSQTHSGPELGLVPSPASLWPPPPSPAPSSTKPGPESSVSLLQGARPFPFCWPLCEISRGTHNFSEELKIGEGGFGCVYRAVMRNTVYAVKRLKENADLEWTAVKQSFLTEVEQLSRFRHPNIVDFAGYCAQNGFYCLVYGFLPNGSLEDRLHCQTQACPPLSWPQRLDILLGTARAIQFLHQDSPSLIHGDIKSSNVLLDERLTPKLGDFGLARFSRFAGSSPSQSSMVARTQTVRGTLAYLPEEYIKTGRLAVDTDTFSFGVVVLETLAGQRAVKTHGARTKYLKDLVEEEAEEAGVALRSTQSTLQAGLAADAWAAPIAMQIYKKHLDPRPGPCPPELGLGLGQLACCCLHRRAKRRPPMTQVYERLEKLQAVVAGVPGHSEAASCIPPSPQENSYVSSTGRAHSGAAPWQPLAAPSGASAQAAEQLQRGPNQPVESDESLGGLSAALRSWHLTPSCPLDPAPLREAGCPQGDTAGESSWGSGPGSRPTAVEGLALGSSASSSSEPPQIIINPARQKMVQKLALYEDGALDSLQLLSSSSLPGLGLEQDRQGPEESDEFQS
Dual specificity protein kinase CLK1 (Homo sapiens), sequence (P49759 whole entry, looked up): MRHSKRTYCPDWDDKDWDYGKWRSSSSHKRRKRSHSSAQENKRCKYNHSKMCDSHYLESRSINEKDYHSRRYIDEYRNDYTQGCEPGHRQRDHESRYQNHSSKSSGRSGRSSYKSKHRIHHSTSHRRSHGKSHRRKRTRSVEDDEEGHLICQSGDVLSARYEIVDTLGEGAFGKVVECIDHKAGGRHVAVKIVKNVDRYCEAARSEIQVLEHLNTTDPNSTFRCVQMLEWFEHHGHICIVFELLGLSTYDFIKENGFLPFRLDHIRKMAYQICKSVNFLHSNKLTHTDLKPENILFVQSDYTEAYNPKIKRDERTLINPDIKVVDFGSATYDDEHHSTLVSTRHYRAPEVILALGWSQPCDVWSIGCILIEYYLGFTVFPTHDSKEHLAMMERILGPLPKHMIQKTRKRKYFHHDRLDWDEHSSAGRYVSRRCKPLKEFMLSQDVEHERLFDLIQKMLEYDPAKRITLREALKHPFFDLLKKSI
Homeodomain-interacting protein kinase 1 (Homo sapiens), sequence (Q86Z02 whole entry, looked up): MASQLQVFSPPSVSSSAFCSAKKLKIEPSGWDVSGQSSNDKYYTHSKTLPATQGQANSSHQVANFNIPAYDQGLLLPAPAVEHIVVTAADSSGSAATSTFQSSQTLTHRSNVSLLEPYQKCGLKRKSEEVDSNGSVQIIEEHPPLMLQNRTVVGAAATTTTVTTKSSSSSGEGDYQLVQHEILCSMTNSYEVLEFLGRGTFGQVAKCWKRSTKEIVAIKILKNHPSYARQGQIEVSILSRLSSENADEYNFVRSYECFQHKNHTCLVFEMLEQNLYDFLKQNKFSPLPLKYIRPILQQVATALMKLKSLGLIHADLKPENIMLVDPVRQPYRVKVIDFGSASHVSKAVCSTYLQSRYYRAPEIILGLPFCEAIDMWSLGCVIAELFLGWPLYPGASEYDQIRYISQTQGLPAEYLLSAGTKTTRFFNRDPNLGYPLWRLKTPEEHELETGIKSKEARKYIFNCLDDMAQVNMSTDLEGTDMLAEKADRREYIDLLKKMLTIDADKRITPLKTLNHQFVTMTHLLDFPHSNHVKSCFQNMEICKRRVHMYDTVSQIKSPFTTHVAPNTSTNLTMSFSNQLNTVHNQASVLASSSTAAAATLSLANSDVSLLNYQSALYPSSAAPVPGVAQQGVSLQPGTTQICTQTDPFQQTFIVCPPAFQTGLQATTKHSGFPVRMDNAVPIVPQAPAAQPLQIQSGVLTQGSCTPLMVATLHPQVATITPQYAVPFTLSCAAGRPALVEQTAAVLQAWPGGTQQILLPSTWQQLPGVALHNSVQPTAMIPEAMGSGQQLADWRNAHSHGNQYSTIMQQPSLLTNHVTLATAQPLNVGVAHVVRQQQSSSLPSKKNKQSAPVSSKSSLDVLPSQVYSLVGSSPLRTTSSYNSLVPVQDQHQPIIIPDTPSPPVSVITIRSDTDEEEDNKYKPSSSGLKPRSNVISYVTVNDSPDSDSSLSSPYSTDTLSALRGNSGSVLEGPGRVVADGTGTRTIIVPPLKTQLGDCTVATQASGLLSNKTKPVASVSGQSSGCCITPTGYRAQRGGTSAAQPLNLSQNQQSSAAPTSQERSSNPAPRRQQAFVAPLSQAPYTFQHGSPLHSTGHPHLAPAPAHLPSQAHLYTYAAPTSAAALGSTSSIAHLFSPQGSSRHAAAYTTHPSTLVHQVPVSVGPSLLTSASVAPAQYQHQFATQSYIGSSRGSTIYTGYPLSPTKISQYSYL

In the case of `O=C(NCCN1CCOCC1)c1ccc2cc1OCCCCCCOc1cc(ccc1F)-c1nc(ncc1F)N2`, the Activity [1] is reported as “Non-Toxic”, the Activity [2] is reported as 18.2% and the inhibition [3] is reported as 73.5%. The Activity [4] was “Non-Toxic”, the Activity [5] was 90% and the Activity (NCI-H1975 [6]) was “Dose-Dependent Effect”. For the same compound, the Activity [7] was “Non-Toxic”, the IC50 [8] was under 20 nM and the inhibition [9] was 96%. For the same compound, the Activity (NCI-H1975 [10]) was “Dose-Dependent Effect”, the IC50 (HCC827) was 315 nM and the IC50 [11] was under 80 nM. For the same compound, the Activity [12] was “Non-Toxic”, the inhibition [13] was 80.7% and the inhibition [14] was 14.3%. For the same compound, the IC50 [15] was 120 nM, the inhibition [16] was 25.9% and the IC50 (PC-9) was 126 nM. The inhibition [17] was 29.3%, the IC50 [18] was 330 nM and the half-life at 10 µM [19] was 6.8 min. For the same compound, the inhibition [20] was 16.3%, the Activity (NCI-H1975 [21]) was “Tde” and the Activity (NCI-H1975 [22]) was “Active”. It also gave an inhibition [23] of 96.5%, a viability at 0.5 µM [24] of 75.6% and a viability at 0.125 µM [25] of 88.9%. The Activity (NCI-H1975 [26]) was “Active”, the Activity [27] was 0.27% and the Activity [28] was “Non-Toxic”. For the same compound, the Activity [29] was “Non-Toxic”, the IC50 (NCI-H1975 [30]) was 174 nM and the IC50 [31] was under 50 nM.
